Measured values taken from ChEMBL document CHEMBL2331372, “Design and synthesis of D₁ agonist/D₂ antagonist for treatment of schizophrenia” (Bioorg Med Chem Lett, 2013).
pEC50, pIC50, pKi: −log10 of the molar value.

Legend:
D(1A) dopamine receptor [1] = target: T1, D(1A) dopamine receptor (Homo sapiens, UniProt P21728); test: Agonist activity at dopamine D1 receptor (unknown origin) transfected in CHO cell membranes assessed as increase in cAMP level after 8 mins by flash plate assay in presence of dopamine; assay type: functional, cell-based; details: for pEC50: read-out: EC50; for EC50: cho
T1 sequence (P21728 whole entry): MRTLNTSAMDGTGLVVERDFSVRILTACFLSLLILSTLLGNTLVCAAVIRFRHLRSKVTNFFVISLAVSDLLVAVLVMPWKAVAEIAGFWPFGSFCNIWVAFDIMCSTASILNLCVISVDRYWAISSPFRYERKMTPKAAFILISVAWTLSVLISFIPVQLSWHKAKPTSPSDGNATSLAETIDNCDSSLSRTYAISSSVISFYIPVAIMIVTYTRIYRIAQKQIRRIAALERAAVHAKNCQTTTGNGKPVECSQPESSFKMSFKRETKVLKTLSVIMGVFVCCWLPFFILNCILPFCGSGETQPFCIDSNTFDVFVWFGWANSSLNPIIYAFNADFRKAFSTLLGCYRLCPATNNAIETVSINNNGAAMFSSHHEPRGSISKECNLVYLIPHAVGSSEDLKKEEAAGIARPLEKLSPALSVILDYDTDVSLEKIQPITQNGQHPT

D(1A) dopamine receptor [2] = target: T1, D(1A) dopamine receptor; test: Displacement of [3H]SCH23390 from dopamine D1 receptor (unknown origin) expressed in CHO cell membranes after 60 mins
D(2) dopamine receptor [3] = target: T2, D(2) dopamine receptor (Homo sapiens, UniProt P14416); test: Displacement of [3H]N-methylspiperone from dopamine D2 receptor (unknown origin) expressed in CHO cell membranes after 60 mins
T2 sequence (P14416 whole entry): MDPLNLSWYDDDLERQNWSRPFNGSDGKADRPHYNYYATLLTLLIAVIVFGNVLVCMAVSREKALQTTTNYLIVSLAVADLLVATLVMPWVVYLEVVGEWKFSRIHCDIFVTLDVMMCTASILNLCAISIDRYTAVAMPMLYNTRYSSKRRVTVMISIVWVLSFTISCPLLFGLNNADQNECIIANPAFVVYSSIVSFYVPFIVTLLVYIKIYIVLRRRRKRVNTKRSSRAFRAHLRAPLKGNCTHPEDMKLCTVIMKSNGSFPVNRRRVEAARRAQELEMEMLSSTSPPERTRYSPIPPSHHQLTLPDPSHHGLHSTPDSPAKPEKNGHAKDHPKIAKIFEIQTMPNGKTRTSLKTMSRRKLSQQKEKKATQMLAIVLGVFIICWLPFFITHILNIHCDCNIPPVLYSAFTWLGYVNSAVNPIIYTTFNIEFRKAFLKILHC

Cytochrome P450 3A4 = Cytochrome P450 3A4 (Homo sapiens, UniProt P08684); test: Inhibition of CYP3A4 (unknown origin); assay type: ADME
Chain of Cytochrome P450 3A4 (P08684 whole entry): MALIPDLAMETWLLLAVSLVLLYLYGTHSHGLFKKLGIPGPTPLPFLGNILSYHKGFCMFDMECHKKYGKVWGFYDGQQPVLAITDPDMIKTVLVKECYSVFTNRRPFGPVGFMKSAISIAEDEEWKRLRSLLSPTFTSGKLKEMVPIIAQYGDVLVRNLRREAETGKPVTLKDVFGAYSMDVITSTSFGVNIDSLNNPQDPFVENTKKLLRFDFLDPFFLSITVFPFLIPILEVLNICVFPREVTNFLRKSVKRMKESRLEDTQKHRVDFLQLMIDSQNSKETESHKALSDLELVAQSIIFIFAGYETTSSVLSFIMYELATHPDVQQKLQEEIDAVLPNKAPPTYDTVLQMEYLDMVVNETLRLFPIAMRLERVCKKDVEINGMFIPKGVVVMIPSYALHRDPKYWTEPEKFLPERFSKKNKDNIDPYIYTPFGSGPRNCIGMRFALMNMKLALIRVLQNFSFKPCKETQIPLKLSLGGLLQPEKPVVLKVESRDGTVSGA

D(2) dopamine receptor [4] = target: T2, D(2) dopamine receptor; test: Antagonist activity at dopamine D2 receptor (unknown origin) transfected in CHO cell membranes assessed as inhibition of forskolin-stimulated cAMP level after 10 mins by flash plate assay in presence of dopamine; assay type: functional, cell-based
Cytochrome P450 2C9 = Cytochrome P450 2C9 (Homo sapiens, UniProt P11712); test: Inhibition of CYP2C9 (unknown origin); assay type: ADME
Chain of Cytochrome P450 2C9 (P11712 whole entry): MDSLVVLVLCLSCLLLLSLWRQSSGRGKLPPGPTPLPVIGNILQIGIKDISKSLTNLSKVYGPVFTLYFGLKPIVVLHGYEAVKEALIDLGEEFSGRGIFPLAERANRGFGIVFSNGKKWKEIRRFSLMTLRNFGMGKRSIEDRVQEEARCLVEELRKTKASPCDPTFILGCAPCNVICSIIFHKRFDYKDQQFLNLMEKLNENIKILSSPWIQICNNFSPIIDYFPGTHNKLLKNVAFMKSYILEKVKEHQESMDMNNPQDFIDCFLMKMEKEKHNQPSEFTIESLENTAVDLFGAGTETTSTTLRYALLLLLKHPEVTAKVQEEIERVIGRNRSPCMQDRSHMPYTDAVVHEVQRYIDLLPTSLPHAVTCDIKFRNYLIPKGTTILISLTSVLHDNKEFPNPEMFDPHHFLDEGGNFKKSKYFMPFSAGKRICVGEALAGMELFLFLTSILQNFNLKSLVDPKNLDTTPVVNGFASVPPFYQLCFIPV

Mus musculus [5] = test: In vivo receptor occupancy of dopamine D2 receptor in CD1 mouse striatum assessed as inhibition of [3H]N-methylspiperone binding at 10 mg/kg, sc after 15 mins by scintillation counting analysis; assay type: functional; details: route subcutaneous
Mus musculus [6] = test: In vivo receptor occupancy of dopamine D1 receptor in CD1 mouse striatum assessed as inhibition of [3H]SCH23390 binding at 10 mg/kg, sc after 15 mins by scintillation counting analysis; assay type: functional; details: route subcutaneous
Cytochrome P450 2C19 = Cytochrome P450 2C19 (Homo sapiens, UniProt P33261); test: Inhibition of CYP2C19 (unknown origin); assay type: ADME
Chain of Cytochrome P450 2C19 (P33261 whole entry): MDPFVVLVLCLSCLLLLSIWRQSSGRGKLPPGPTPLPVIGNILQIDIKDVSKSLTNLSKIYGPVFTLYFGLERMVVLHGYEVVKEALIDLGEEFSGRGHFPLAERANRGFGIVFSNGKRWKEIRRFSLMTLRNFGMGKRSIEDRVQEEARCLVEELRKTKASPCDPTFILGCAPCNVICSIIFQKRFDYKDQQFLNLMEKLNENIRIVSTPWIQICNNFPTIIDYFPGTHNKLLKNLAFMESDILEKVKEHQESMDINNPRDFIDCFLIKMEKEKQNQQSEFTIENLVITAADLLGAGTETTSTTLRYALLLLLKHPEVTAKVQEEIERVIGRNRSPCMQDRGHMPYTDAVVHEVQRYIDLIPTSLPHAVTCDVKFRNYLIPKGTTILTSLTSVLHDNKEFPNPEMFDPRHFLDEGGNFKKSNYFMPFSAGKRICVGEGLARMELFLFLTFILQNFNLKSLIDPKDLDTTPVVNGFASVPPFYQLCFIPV

Cytochrome P450 1A2 = target: T3, Cytochrome P450 1A2 (Homo sapiens, UniProt P05177); test: Inhibition of CYP1A2 (unknown origin); assay type: ADME
T3 sequence (P05177 whole entry): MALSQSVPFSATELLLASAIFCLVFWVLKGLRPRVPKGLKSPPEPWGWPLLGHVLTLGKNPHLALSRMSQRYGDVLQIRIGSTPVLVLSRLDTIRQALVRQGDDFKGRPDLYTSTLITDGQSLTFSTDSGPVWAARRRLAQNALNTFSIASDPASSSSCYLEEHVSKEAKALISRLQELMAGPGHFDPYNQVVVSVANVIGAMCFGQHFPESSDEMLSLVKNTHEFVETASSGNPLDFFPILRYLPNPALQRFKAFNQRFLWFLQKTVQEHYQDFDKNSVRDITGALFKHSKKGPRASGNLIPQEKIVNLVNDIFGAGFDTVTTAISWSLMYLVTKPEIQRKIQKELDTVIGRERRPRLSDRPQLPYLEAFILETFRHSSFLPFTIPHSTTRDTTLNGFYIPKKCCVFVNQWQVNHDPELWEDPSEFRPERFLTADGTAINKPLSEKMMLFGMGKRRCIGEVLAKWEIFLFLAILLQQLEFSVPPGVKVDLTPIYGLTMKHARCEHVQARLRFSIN

Cytochrome P450 2D6 = Cytochrome P450 2D6 (Homo sapiens, UniProt P10635); test: Inhibition of CYP2D6 (unknown origin); assay type: ADME
Chain of Cytochrome P450 2D6 (P10635 whole entry): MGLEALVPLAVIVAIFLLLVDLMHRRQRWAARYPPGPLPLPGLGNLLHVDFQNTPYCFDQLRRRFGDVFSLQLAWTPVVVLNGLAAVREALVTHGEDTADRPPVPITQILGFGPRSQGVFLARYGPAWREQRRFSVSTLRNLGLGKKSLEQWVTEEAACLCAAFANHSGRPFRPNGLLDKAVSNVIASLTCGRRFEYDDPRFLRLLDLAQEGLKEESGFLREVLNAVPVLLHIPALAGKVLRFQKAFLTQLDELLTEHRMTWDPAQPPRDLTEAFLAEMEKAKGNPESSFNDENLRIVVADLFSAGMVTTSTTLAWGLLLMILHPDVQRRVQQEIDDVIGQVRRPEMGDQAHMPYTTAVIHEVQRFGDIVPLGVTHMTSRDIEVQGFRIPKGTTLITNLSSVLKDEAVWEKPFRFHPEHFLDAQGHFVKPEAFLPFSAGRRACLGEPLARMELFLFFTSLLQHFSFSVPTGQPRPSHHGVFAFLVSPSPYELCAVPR

COc1cc2c(cc1O)[C@H]1C[C@@](O)(c3ccc(OC(F)(F)F)cc3)CCN1CC2
pEC50 (D(1A) dopamine receptor [1]): 8.30 | pKi (D(1A) dopamine receptor [2]): 8.70 | pKi (D(2) dopamine receptor [3]): 8.40 | inhibition (INH) (Cytochrome P450 3A4): Not Active | pIC50 (D(2) dopamine receptor [4]): 8.22 | inhibition (INH) (Cytochrome P450 2C9): Not Active | Occ (Mus musculus [5]): 75% | Occ (Mus musculus [6]): 95% | inhibition (INH) (Cytochrome P450 2C19): Not Active | inhibition (INH) (Cytochrome P450 1A2): Not Active | pIC50 (Cytochrome P450 2D6): 6.08

Cc1cc2c(cc1O)[C@H]1C[C@](O)(c3ccc(Cl)cc3)CCN1CC2
pEC50 (D(1A) dopamine receptor [1]): 6.12 | pKi (D(1A) dopamine receptor [2]): 7.34 | pKi (D(2) dopamine receptor [3]): 6.88 | pIC50 (D(2) dopamine receptor [4]): 6.82

COc1cc2c(cc1O)[C@H]1C[C@](O)(c3ccc(Cl)cc3)CCN1CC2
EC50 (D(1A) dopamine receptor [1]): Not Active | pKi (D(1A) dopamine receptor [2]): 6.61 | pKi (D(2) dopamine receptor [3]): 7.00 | pIC50 (D(2) dopamine receptor [4]): 6.42

Cc1cc2c(cc1O)[C@H]1C[C@@](O)(c3ccc(Cl)cc3)CCN1CC2
pEC50 (D(1A) dopamine receptor [1]): 7.96 | pKi (D(1A) dopamine receptor [2]): 8.26 | pKi (D(2) dopamine receptor [3]): 7.91 | pIC50 (D(2) dopamine receptor [4]): 6.66

COc1ccc2c(c1)CCN1CC[C@@](O)(c3ccc(Cl)cc3)C[C@H]21
EC50 (D(1A) dopamine receptor [1]): Not Active | pKi (D(1A) dopamine receptor [2]): 5.48 | pKi (D(2) dopamine receptor [3]): < 5.00

COc1cc2c(cc1O)[C@H]1C[C@@](O)(c3ccc(Cl)cc3)CCN1CC2
pEC50 (D(1A) dopamine receptor [1]): 8.10 | pKi (D(1A) dopamine receptor [2]): 8.40 | pKi (D(2) dopamine receptor [3]): 7.83

COc1ccc2c(c1)CCN1CC[C@](O)(c3ccc(Cl)cc3)C[C@H]21
EC50 (D(1A) dopamine receptor [1]): Not Active | pKi (D(1A) dopamine receptor [2]): 6.60 | pKi (D(2) dopamine receptor [3]): 6.71 | pIC50 (D(2) dopamine receptor [4]): 6.00
